According to patent US11696907B2, “Wound healing composition” (WINERGEN TECHNOLOGIES INC., LTD., priority 2016, dated 2023):

Experiments:
certain wounds = assay: Effect of unsaturated fatty acids on wounds; design: species or system patients; conditions: in vivo
wounds and skin damage = assay: Treatment effect of palmitic acid and behenic acid alone versus combined

Row | SMILES | inflammation to certain wounds, causing pain in some patients (certain wounds) | treatment effect of either acid alone (wounds and skin damage)
1 | CCCCC/C=C\C/C=C\C/C=C\C/C=C\CCCC(=O)O [arachidonic acid] | harmful inflammation | –
2 | CCCCCCCCCCCCCCCCCCCCCC(=O)O [behenic acid] | – | less significant
3 | CCCCC/C=C\C/C=C\CCCCCCCC(=O)O [linoleic acid] | harmful inflammation | –
4 | CCCCCCCCCCCCCCCC(=O)O [palmitic acid] | – | less significant
